Results published in patent publication US10377741B2, “Substituted heteroaryl aldehyde compounds and methods for their use in increasing tissue oxygenation” (Global Blood Therapeutics, Inc., priority 2011, dated 2019).

Tests used:
whole blood = test: Whole blood assay: oxygen equilibrium curves of whole blood; assay type: cell-based, human (homozygous sickle cell patients); conditions: compound at 1000 μM; hematocrit 20%, 1 hour at 37° C.
Experimental: Oxygen Equilibrium Curves (OEC) of whole blood before and after treatment with different concentrations of substituted benzaldehyde compounds were performed as follows using a HEMOX analyzer (TCS Scientific, New Hope, Pa.). Blood samples from homozygous sickle cell patients were obtained though the Hemoglobinopathy Center at Children's Hospital Oakland Research Institute (CHORI) with Institutional Review Board approval. The hematocrit was adjusted to 20% using autologous plasma and the blood samples were incubated for 1 hour at 37° C. in absence or presence of compounds. 100 μl of these samples were added to 5 mL of Hemox buffer (30 mM TES, 130 mM NaCl, 5 mM KCl, pH=7.4) at 37° C. and then transferred to the Hemox sample chamber. The samples were saturated with oxygen by flushing with compressed air for 10 minutes. The samples were then flushed with pure nitrogen and the respective absorbances of oxy- and deoxy-Hb are recorded as a function of the solution pO2. The oxygen equilibrium data were then fitted to the Hill Model to obtain values for p50. The deoxygenation curves for both whole blood alone (control) and whole blood in the presence of the compound were collected with the TCS software.
Table 5 below lists the delta p50% values where + indicates a delta p50% of between 0 and 29, ++ indicates a delta p50% of between 30 and 50, and +++ indicates a delta p50% of 50 or greater. Unless noted otherwise, the compounds in Table 2 were tested at 1000 μM.

[1] = target: T1, purified Hemoglobin S (HbS) (Homo sapiens, UniProt P68871+P69905, E7V); test: Modulation of hemoglobin oxygen affinity: oxygen equilibrium curves (HEMOX) in purified HbS; assay type: biochemical, human (homozygous sickle cell patients); conditions: compound at 30 μM; 25 μM purified HbS, 45 min at 37° C.
T1 construct: HbS was purified by a modified procedure; from tissue; host or cells: blood of homozygous sickle cell patients (CHORI); for the polymerization assay purified by the CRO VIRUSYS
Summary of the method: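 HbS from homozygous sickle cell patient blood, 25 μM in HEMOX buffer pH 7.4, incubated 45 min at 37° C with compound (30 μM unless noted). Air-saturated then deoxygenated with N2; p50 from Hill fit; delta p50% = (control p50 − treated p50)/control p50 × 100.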

HbS/A = target: T2, HbS/A (Homo sapiens, UniProt P68871+P69905, E7V); test: R/T assay (relaxed-to-tense transition under deoxygenated conditions); assay type: biochemical, human (homozygous sickle cell patients); conditions: 3 μM HbS/A, % R remaining vs no treatment
T2 construct: A mixture of HbS/A was purified from blood; from tissue; host or cells: blood of homozygous sickle cell patients (CHORI)
Experimental: A relaxed-to-tense transition assay (“R/T assay”) was used to determine the ability of substituted benzaldehyde compounds to maintain the high-oxygen affinity relaxed (R) state of hemoglobin under deoxygenated conditions. This ability can be expressed as a “delta R” value (i.e., the change in the time-period of the R state after hemoglobin is treated with a compound, as compared to the period without treatment with the compound). Delta R is the % R to remaining after the compounds treatment compared with no treatment (e.g. if R % without treatment is 8% while with treatment with a target compound is 48% R at 30 μM, then % R is 40% for that compound.
A mixture of HbS/A was purified from blood obtained from homozygous sickle cell patients though the Hemoglobinopathy Center at Children's Hospital Oakland Research Institute (CHORI) with Institutional Review Board approval. HbS/A (at a final concentration of 3 μM) was incubated for 1 hr at 37° C. in presence or absence of compounds in […] potassium phosphate buffer, pH=7.4 and 30 μM 2, 3 diphosphoglycerate (DPG) in 96 well plates in a final volume of 160 μl. Compounds were added at different concentrations (3 μM to 100 μM final concentrations). Plates were covered with a Mylar film. After incubation was completed the Mylar cover was removed and the plates were placed in a Spectrostar Nano plate reader previously heated at 37° C. Five minutes later, N2 (flow rate=20 L/min) was flowed through the spectrophotometer. Spectroscopic measurements (300 nm to 700 nm) were taken every 5 min for 2 hours. Data analysis was performed by using linear regression from the data retrieved for all wavelengths.
Table 4 below lists the delta R values where + indicates a delta R of between 0 and 30, ++ indicates a delta R of between 30 and 50, and +++ indicates a delta R of 50 or greater. Unless noted otherwise, the compounds in Table 2 were tested at 30 μM.

Structure (SMILES) | delta p50% Values for Whole Blood Assay (whole blood) | delta p50% [1] | delta R (HbS/A; compound at 9 μM) | delta R (HbS/A; compound at 30 μM)
COc1cc(C=O)c(OCc2nccc3ccccc23)cn1 [Compound 44, 5-(isoquinolin-1-ylmethoxy)-2-methoxyisonicotinaldehyde] | + (a delta p50% of between 0 and 29) | +++ (a delta p50% of 50 or greater) | – | –
COc1cc(C=O)c(OCc2cccn3c(C)nnc23)cn1 [Compound 58, 2-methoxy-5-((3-methyl-[1,2,4]triazolo[4,3-a]pyridin-8-yl)methoxy)isonicotinaldehyde] | + (a delta p50% of between 0 and 29) | ++ (a delta p50% of between 30 and 50) | + (a delta R of between 0 and 30) | –
COc1cc(C=O)c(OCc2cccnc2-c2ccn[nH]2)cn1 [Compound 65, 5-((2-(1H-pyrazol-5-yl)pyridin-3-yl)methoxy)-2-methoxyisonicotinaldehyde] | + (a delta p50% of between 0 and 29) | ++ (a delta p50% of between 30 and 50) | + (a delta R of between 0 and 30) | –
COc1cc(C=O)c(OCc2cncc(-c3ccnn3C)c2)cn1 [Compound 74, 2-methoxy-5-((5-(1-methyl-1H-pyrazol-5-yl)pyridin-3-yl)methoxy)isonicotinaldehyde] | ++ (a delta p50% of between 30 and 50) | ++ (a delta p50% of between 30 and 50) | – | –
COc1cc(C=O)c(OCc2cncc(C(=O)O)c2)cn1 [Compound 79, 5-((4-formyl-6-methoxypyridin-3-yloxy)methyl)nicotinic acid] | + (a delta p50% of between 0 and 29) | ++ (a delta p50% of between 30 and 50) | ++ (a delta R of between 30 and 50) | –
COc1cc(C=O)c(OCc2cnc3ccccc3c2)cn1 [Compound 80, 2-methoxy-5-(quinolin-3-ylmethoxy)isonicotinaldehyde] | + (a delta p50% of between 0 and 29) | ++ (a delta p50% of between 30 and 50) | +++ (a delta R of 50 or greater) | –
Cc1ccc(OCc2cccc3cnn(C)c23)c(C=O)n1 [Compound 92, 6-methyl-3-((1-methyl-1H-indazol-7-yl)methoxy)picolinaldehyde] | + (a delta p50% of between 0 and 29) | ++ (a delta p50% of between 30 and 50) | + (a delta R of between 0 and 30) | –
Cc1ccc(OCc2nccc3ccccc23)c(C=O)n1 [Compound 93, 3-(isoquinolin-1-ylmethoxy)-6-methylpicolinaldehyde] | + (a delta p50% of between 0 and 29) | ++ (a delta p50% of between 30 and 50) | + (a delta R of between 0 and 30) | –
COc1cc(C=O)c(OCc2cccc3ocnc23)cn1 [Compound 103, 5-(benzo[d]oxazol-4-ylmethoxy)-2-methoxyisonicotinaldehyde] | + (a delta p50% of between 0 and 29) | ++ (a delta p50% of between 30 and 50) | ++ (a delta R of between 30 and 50) | –
Cc1ccc(OCc2ccnc3cccnc23)c(C=O)n1 [Compound 106, 3-((1,5-naphthyridin-4-yl)methoxy)-6-methylpicolinaldehyde] | + (a delta p50% of between 0 and 29) | ++ (a delta p50% of between 30 and 50) | – | –
Cc1ccc(OCc2ccc3c(cnn3C)c2)c(C=O)n1 [Compound 108, 6-methyl-3-((1-methyl-1H-indazol-5-yl)methoxy)picolinaldehyde] | + (a delta p50% of between 0 and 29) | ++ (a delta p50% of between 30 and 50) | +++ (a delta R of 50 or greater) | –
COc1cc(C=O)c(OCc2cccc3ncccc23)cn1 [Compound 120, 2-methoxy-5-(quinolin-5-ylmethoxy)isonicotinaldehyde] | + (a delta p50% of between 0 and 29) | ++ (a delta p50% of between 30 and 50) | ++ (a delta R of between 30 and 50) | –
COc1cc(C=O)c(OCc2cccnc2-c2ccnn2C)cn1 [Compound 129, 2-methoxy-5-((2-(1-methyl-1H-pyrazol-5-yl)pyridin-3-yl)methoxy)isonicotinaldehyde] | ++ (a delta p50% of between 30 and 50) | ++ (a delta p50% of between 30 and 50) | ++ (a delta R of between 30 and 50) | –
COc1cc(C=O)c(OCc2cccnc2-c2nn[nH]n2)cn1 [Compound 131, 5-((2-(2H-tetrazol-5-yl)pyridin-3-yl)methoxy)-2-methoxyisonicotinaldehyde] | + (a delta p50% of between 0 and 29) | ++ (a delta p50% of between 30 and 50) | + (a delta R of between 0 and 30) | –
COc1cc(C=O)c(OCc2cccnc2-c2[nH]ncc2C)cn1 [Compound 132, 2-methoxy-5-((2-(4-methyl-1H-pyrazol-5-yl)pyridin-3-yl)methoxy)isonicotinaldehyde] | ++ (a delta p50% of between 30 and 50) | +++ (a delta p50% of 50 or greater) | – | ++ (a delta R of between 30 and 50)
COc1cc(C=O)c(OCc2c(-c3ccn[nH]3)ncc3ccccc23)cn1 [Compound 133, 5-((3-(1H-pyrazol-5-yl)isoquinolin-4-yl)methoxy)-2-methoxyisonicotinaldehyde] | + (a delta p50% of between 0 and 29) | ++ (a delta p50% of between 30 and 50) | ++ (a delta R of between 30 and 50) | –
COc1cc(C=O)c(OCc2cccn3cncc23)cn1 [Compound 140, 5-(imidazo[1,5-a]pyridin-8-ylmethoxy)-2-methoxyisonicotinaldehyde] | + (a delta p50% of between 0 and 29) | ++ (a delta p50% of between 30 and 50) | + (a delta R of between 0 and 30) | –
COc1cc(C=O)c(OCc2cccnc2-c2cnn(C)c2C)cn1 [Compound 143, 5-((2-(1,5-dimethyl-1H-pyrazol-4-yl)pyridin-3-yl)methoxy)-2-methoxyisonicotinaldehyde] | + (a delta p50% of between 0 and 29) | ++ (a delta p50% of between 30 and 50) | + (a delta R of between 0 and 30) | –
COCCOc1cc(C=O)c(OCc2cccn3ccnc23)cn1 [Compound 179, 5-(imidazo[1,2-a]pyridin-8-ylmethoxy)-2-(2-methoxyethoxy) isonicotinaldehyde] | ++ (a delta p50% of between 30 and 50) | ++ (a delta p50% of between 30 and 50) | + (a delta R of between 0 and 30) | –
COCCOc1cc(C=O)c(OCc2cccnc2-c2ccnn2CCC(F)(F)F)cn1 [Compound 209, 2-(2-methoxyethoxy)-5-((2-(1-(3,3,3-trifluoropropyl)-1H-pyrazol-5-yl)pyridin-3-yl)methoxy)isonicotinaldehyde] | + (a delta p50% of between 0 and 29) | – | – | –
